In article PMC3728097 (PLoS ONE, 2013):
“Also recorded” adds a separate entry of the source. Blank lines part the entries; values can stand above or below the compound they belong to.

Key:
[1] = molecular target: α7 nAChRs in the monkey brain (Macaca mulatta, UniProt Q866A2); type: in vivo; settings: monkey SPECT, pretreatment SSR180711 5.0 mg/kg i.v.
Procedure: Four monkeys (male, 7 year olds, 8 kg) were selected for SPECT imaging. Immediately after HPLC column purification, 50 µg (74 MBq) of the ^131I-CHIBA-1001 in 2 mL of normal saline were injected into the monkeys via intravenous administration after administration of saline (control) or SSR180711 (5.0 mg/kg, i.v.). […] At 0.5, 1.5, and 2 h after injection, imaging was performed in the Department of Nuclear Medicine, Peking University First Hospital, using SPECT (SPR SPECT; GE Healthcare, Inc.) equipped with a high-energy general purpose (HEGP) collimator. Static images (200,000 counts), obtained with a zoom factor of 2.0, were digitally stored in a 64 × 64 matrix.

[2] = molecular target: T1, α7 nAChRs in the rat brain (Rattus norvegicus, UniProt Q05941); assay: In vitro saturation binding assay of ^125I-CHIBA-1001 in rat brain membranes; settings: 4°C, n = 5, mean ± S.E.M.
T1 construct: aliquots of a membrane suspension (200 µl), ^125I-CHIBA-1001 and the indicated concentrations of test drug; from tissue; host or cells: rat brain membranes (Sprague Dawley)
Procedure: Male SD (Sprague Dawley) rats (8–10 week olds, 180–200 g) were used for the experiments. After sacrificing the rats by decapitation, the brains were rapidly removed from the skulls.
The tissues of each brain region were homogenized in 15 volumes of 50 mM Tris–HCl buffer (120 mM NaCl, 2 mM KCl, 1 mM CaCl2, 1 mM MgCl 2, pH 7.4 at 4°C) using a Polytron homogenizer at setting No. 5 for 30s on ice. The membranes were centrifuged in 50 ml polypropylene tube at 48,000 g for 20 min at 4°C. The supernatant was discarded and the pellet re-suspended, homogenized and centrifuged as above. The membrane pellet was washed and re-suspended in ice-cold buffer and was then centrifuged two more times. The final pellet was re-suspended in 10 volumes of the same buffer.
Assays of the binding of ^125I-CHIBA-1001 to α7 nAChRs in the rat brain were performed according to the method published previously [21], [22]. The reaction mixtures were consisted of aliquots of a membrane suspension (200 µl), ^125I-CHIBA-1001 and the indicated concentrations of test drug in a final volume of 0.5 ml in duplicate. Non-specific binding was estimated in the presence of 30 µM SSR180711. Binding reaction was conducted for 150 min at 4°C for the equilibrium saturation and inhibition studies.

α7 nAChRs = settings: cited from earlier work
[3] = blocked cerebellum as nonspecific binding

α7 nAChRs in the monkey brain, sequence (Q866A2 23-502): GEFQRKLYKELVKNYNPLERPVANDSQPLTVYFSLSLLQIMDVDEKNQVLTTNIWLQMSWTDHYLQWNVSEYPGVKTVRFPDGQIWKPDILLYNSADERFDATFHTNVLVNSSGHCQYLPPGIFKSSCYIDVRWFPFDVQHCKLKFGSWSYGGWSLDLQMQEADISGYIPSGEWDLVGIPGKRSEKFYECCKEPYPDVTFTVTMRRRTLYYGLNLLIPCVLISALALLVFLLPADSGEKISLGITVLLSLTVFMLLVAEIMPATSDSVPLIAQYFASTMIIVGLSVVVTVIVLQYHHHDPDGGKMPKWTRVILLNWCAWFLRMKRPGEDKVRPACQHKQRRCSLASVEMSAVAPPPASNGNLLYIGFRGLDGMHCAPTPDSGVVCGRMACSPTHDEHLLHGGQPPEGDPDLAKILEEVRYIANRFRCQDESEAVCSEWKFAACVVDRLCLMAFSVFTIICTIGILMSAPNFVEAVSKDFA
T1 sequence (Q05941 23-502): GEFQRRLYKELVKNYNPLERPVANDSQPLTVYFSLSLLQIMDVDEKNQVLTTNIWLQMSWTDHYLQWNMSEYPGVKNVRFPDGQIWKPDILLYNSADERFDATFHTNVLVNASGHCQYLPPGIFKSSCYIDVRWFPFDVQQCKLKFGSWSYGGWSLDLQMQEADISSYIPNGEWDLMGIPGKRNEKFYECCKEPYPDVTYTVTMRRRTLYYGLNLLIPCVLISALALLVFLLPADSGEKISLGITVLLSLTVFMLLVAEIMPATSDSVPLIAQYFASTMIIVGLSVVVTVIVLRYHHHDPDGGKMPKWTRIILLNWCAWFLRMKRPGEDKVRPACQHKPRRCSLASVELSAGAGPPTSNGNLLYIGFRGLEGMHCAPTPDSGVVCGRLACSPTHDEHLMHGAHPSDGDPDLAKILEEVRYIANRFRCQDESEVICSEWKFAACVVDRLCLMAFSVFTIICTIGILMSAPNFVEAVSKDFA

blockade of ^131I-CHIBA-1001 uptake in the cerebellum [1]: minimal
decrease of specific binding of ^131I-CHIBA-1001 in the frontal cortex [1, 3]: 38.5±2.1%
decrease of specific binding of ^131I-CHIBA-1001 in the thalamus [1, 3]: 35.7±2.8%
Compound: O=C(Oc1ccc(Br)cc1)N1CCN2CCC1CC2 [SSR180711]
effect of pretreatment on uptake of ^131I-CHIBA-1001 radioactivity in the brain [1]: blocked the radioactive uptake in the brain successfully; also recorded: decreased

Compound: O=C(Oc1ccc([125I])cc1)N1CCN2CCC1CC2 [^125I-CHIBA-1001]
B max [2]: 63.97±17.45 fmol/mg protein

Compound: [^125I]methyllycaconitine [^125I-MLA]
Kd (α7 nAChRs): 0.0018 µM

Compound: O=C(Oc1ccc(I)cc1)N1CCN2CCC1CC2 [^125I-CHIBA-1001]
Kd ([2]; read-out: apparent Kd): 0.0819 ± 0.00795 µM
